In this test the test system is L1210 leukemia ip in BDF1 mice, survival T/C. In words: NCI In Vivo Anticancer Drug Screen. Data for tumor model L1210 Leukemia (intraperitoneal) in B6D2F1 (BDF1) mice. The note with it: endpoint: mean survival time, higher = longer survival. An outline of the steps: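 Survival endpoint. Drug-treated group vs vehicle group, expressed as T divided by C. Tumor passaged by transplantation.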

Setting [1] is: dose: 100.0 mg/kg/injection, schedule: Q01DX009 (ip), vehicle: saline with Tween-80.
The mark [2] stands for this setting: dose: 200.0 mg/kg/injection, schedule: Q01DX009 (ip), vehicle: saline with Tween-80.
Setting [3] is: dose: 400.0 mg/kg/injection, schedule: Q01DX009 (ip), vehicle: saline with Tween-80.
Setting [4] is: dose: 25.0 mg/kg/injection, schedule: Q04DX003 (ip), vehicle: saline.
Setting [5] is: dose: 100.0 mg/kg/injection, schedule: Q01DX001 (ip), vehicle: carboxymethylcellulose (CMC).
Setting [6] is: dose: 200.0 mg/kg/injection, schedule: Q01DX001 (ip), vehicle: carboxymethylcellulose (CMC).
Where [7] appears, read: dose: 400.0 mg/kg/injection, schedule: Q01DX001 (ip), vehicle: carboxymethylcellulose (CMC).
[8] abbreviates: dose: 75.0 mg/kg/injection, schedule: Q01DX001 (ip), vehicle: other.
The mark [9] stands for this setting: dose: 150.0 mg/kg/injection, schedule: Q01DX001 (ip), vehicle: other.
Setting [10] is: dose: 50.0 mg/kg/injection, schedule: Q04DX003 (ip), vehicle: saline.
Setting [11] is: dose: 100.0 mg/kg/injection, schedule: Q01DX001 (ip), vehicle: saline.
Where [12] appears, read: dose: 100.0 mg/kg/injection, schedule: Q04DX003 (ip), vehicle: saline.
Setting [13] is: dose: 200.0 mg/kg/injection, schedule: Q01DX001 (ip), vehicle: saline.

SMILES strings stand for the structures. “And” between values parts separate entries of the source, which are not always exact repeats. Identical values can stand only once. Toxic doses and inconclusive results are not listed. Peptide text beside a SMILES is read from it. * marks the point of attachment. Trt = c1ccc(C(c2ccccc2)(c2ccccc2)*)cc1; Boc = CC(C)(C)OC(=O)*

As to `O=Cc1[nH]c(=S)[nH]c(=O)c1Cc1cccc(Cl)c1`, the T/C is, setting by setting: under setting [1], 100 % of control; (dose: 100.0 mg/kg/injection, schedule: Q04DX003 (ip), vehicle: saline with Tween-80) 94 % of control; under setting [2], 100 % of control; (dose: 200.0 mg/kg/injection, schedule: Q04DX003 (ip), vehicle: saline with Tween-80) 94 % of control; under setting [3], 100 % of control; (dose: 400.0 mg/kg/injection, schedule: Q04DX003 (ip), vehicle: saline with Tween-80) 90 % of control.
As to `CC1(C)N=C(N)N=C(N)N1c1ccc(CCCCc2ccccc2Cl)cc1`, the T/C (dose: 12.5 mg/kg/injection, schedule: Q01DX001 (ip), vehicle: Klucel (hydroxypropylcellulose) (HPC)) was 95 % of control and the T/C (dose: 25.0 mg/kg/injection, schedule: Q01DX001 (ip), vehicle: Klucel (hydroxypropylcellulose) (HPC)) is 98 % of control.
For the compound `COc1ccc(C(C)=O)cc1OCc1ccccc1`, the T/C is, setting by setting: (dose: 100.0 mg/kg/injection, schedule: Q01DX009 (ip), vehicle: water) 112 % of control; (dose: 100.0 mg/kg/injection, schedule: Q04DX003 (ip), vehicle: water) 98 % of control; (dose: 200.0 mg/kg/injection, schedule: Q01DX009 (ip), vehicle: water) 108 % of control; (dose: 200.0 mg/kg/injection, schedule: Q04DX003 (ip), vehicle: water) 100 % of control; (dose: 400.0 mg/kg/injection, schedule: Q01DX009 (ip), vehicle: water) 103 % of control; (dose: 400.0 mg/kg/injection, schedule: Q04DX003 (ip), vehicle: water) 93 % of control.
As for `c1ccc(Cc2cccc[n+]2Cc2ccccc2)cc1`, the T/C is 102 % of control (dose: 12.5 mg/kg/injection, schedule: Q04DX003 (ip), vehicle: saline) and 105 % of control under setting [4].
As for `CC(C)Cn1cnc2c(=S)nc(N)[nH]c21`, the T/C (dose: 6.0 mg/kg/injection, schedule: Q01DX015 (ip), vehicle: other) is 107 % of control; the T/C (dose: 9.0 mg/kg/injection, schedule: Q01DX015 (ip), vehicle: carboxymethylcellulose (CMC)) is 103 % of control; the T/C (dose: 9.0 mg/kg/injection, schedule: Q01DX015 (ip), vehicle: other) was 111 % of control; the T/C (dose: 13.0 mg/kg/injection, schedule: Q01DX015 (ip), vehicle: carboxymethylcellulose (CMC)) was 104 % of control; the T/C (dose: 20.0 mg/kg/injection, schedule: Q01DX015 (ip), vehicle: carboxymethylcellulose (CMC)) is 109 % of control; the T/C (dose: 21.0 mg/kg/injection, schedule: Q01DX015 (ip), vehicle: other) is 150 % of control. Besides, the T/C (dose: 22.0 mg/kg/injection, schedule: Q01DX001 (ip), vehicle: carboxymethylcellulose (CMC)) was 114 % of control; the T/C (dose: 44.0 mg/kg/injection, schedule: Q01DX015 (ip), vehicle: carboxymethylcellulose (CMC)) is 109 % of control; the T/C (dose: 60.0 mg/kg/injection, schedule: Q01DX015 (ip), vehicle: other) is 124 % of control; the T/C (dose: 66.0 mg/kg/injection, schedule: Q01DX015 (ip), vehicle: carboxymethylcellulose (CMC)) is 98 % of control; the T/C under setting [5] is 155 % of control; the T/C (dose: 100.0 mg/kg/injection, schedule: Q01DX015 (ip), vehicle: carboxymethylcellulose (CMC)) is 98 % of control. Besides, the T/C was 121 % of control (dose: 100.0 mg/kg/injection, schedule: Q01DX015 (ip), vehicle: other); 153 % of control and 161 % of control under setting [6]; 112 % of control under setting [7].
For the compound `S=C(Nc1ccc(Br)cc1)NC1CCCCC1`, the T/C under setting [8] was 88 % of control; the T/C under setting [9] was 93 % of control; the T/C (dose: 300.0 mg/kg/injection, schedule: Q01DX001 (ip), vehicle: other) was 95 % of control.
Regarding `Cn1cc[nH]c1=S`, the T/C was 114 % of control under setting [4]; 90 % of control under setting [10]; 110 % of control under setting [11]; 98 % of control under setting [12]; 107 % of control under setting [13]; 105 % of control (dose: 400.0 mg/kg/injection, schedule: Q01DX001 (ip), vehicle: saline).
Consider `COC(=O)NS(=O)(=O)c1ccco1`, for which the T/C was 92 % of control (dose: 100.0 mg/kg/injection, schedule: Q01DX001 (ip), vehicle: Klucel (hydroxypropylcellulose) (HPC)); 100 % of control (dose: 100.0 mg/kg/injection, schedule: Q04DX003 (ip), vehicle: Klucel (hydroxypropylcellulose) (HPC)); 98 % of control (dose: 200.0 mg/kg/injection, schedule: Q01DX001 (ip), vehicle: Klucel (hydroxypropylcellulose) (HPC)); 106 % of control (dose: 200.0 mg/kg/injection, schedule: Q04DX003 (ip), vehicle: Klucel (hydroxypropylcellulose) (HPC)); 101 % of control (dose: 400.0 mg/kg/injection, schedule: Q01DX001 (ip), vehicle: Klucel (hydroxypropylcellulose) (HPC)); 89 % of control (dose: 400.0 mg/kg/injection, schedule: Q04DX003 (ip), vehicle: Klucel (hydroxypropylcellulose) (HPC)).
With `O=C(N/N=C\c1c(Cl)cccc1Cl)N/N=C/c1c(Cl)cccc1Cl`, the T/C was 89 % of control (dose: 100.0 mg/kg/injection, schedule: Q04DX002 (ip), vehicle: saline with Tween-80); 99 % of control (dose: 200.0 mg/kg/injection, schedule: Q04DX002 (ip), vehicle: saline with Tween-80); 95 % of control (dose: 400.0 mg/kg/injection, schedule: Q04DX002 (ip), vehicle: saline with Tween-80).
With `O=c1[nH]c2cc(Cl)ccc2c(CCl)c1Cl`, the T/C is 92 % of control (dose: 25.0 mg/kg/injection, schedule: Q01DX009 (ip), vehicle: saline with Tween-80); 94 % of control (dose: 50.0 mg/kg/injection, schedule: Q01DX009 (ip), vehicle: saline with Tween-80); 89 % of control under setting [1]; 100 % of control (dose: 100.0 mg/kg/injection, schedule: Q04DX003 (ip), vehicle: acetone).
Regarding `NC(=S)N/N=C/c1ccccc1`, the T/C is, setting by setting: under setting [8], 103 % of control; under setting [9], 105 % of control.
For `CCOC(=O)Nc1ccc2c(c1)/C(=N\NC(N)=S)c1ccccc1-2`, the T/C (dose: 50.0 mg/kg/injection, schedule: Q01DX001 (ip), vehicle: carboxymethylcellulose (CMC)) is 94 % of control; the T/C under setting [10] was 86 % of control; the T/C (dose: 75.0 mg/kg/injection, schedule: Q01DX009 (ip), vehicle: saline with Tween-80) is 101 % of control; the T/C under setting [5] was 102 % of control; the T/C under setting [11] is 93 % of control; the T/C under setting [12] is 92 % of control. In addition, the T/C reads like this: (dose: 150.0 mg/kg/injection, schedule: Q01DX009 (ip), vehicle: saline with Tween-80) 113 % of control; under setting [6], 105 % of control; under setting [13], 96 % of control; (dose: 200.0 mg/kg/injection, schedule: Q04DX003 (ip), vehicle: saline) 100 % of control; under setting [7], 100 % of control.
With `CCCCOP(=O)(/C=C/c1ccc([N+](=O)[O-])cc1)OCCCC`, the T/C is 97 % of control (dose: 100.0 mg/kg/injection, schedule: Q04DX002 (ip), vehicle: Klucel (hydroxypropylcellulose) (HPC)); 93 % of control (dose: 200.0 mg/kg/injection, schedule: Q04DX002 (ip), vehicle: Klucel (hydroxypropylcellulose) (HPC)); 108 % of control (dose: 400.0 mg/kg/injection, schedule: Q04DX002 (ip), vehicle: Klucel (hydroxypropylcellulose) (HPC)).
For `COc1ccc2c(c1)CCC1=C2CCC(C)(C(=O)O)N1` (centres undefined), the T/C by setting is: under setting [1], 98 % of control; under setting [2], 95 % of control; under setting [3], 87 % of control.
As to `CC(C)(C)OC(=O)NC(CSC(c1ccccc1)(c1ccccc1)c1ccccc1)C(=O)NC(Cc1ccccc1)C(=O)NCC(=O)O` (stereo not drawn) (Boc-Cys(Trt)-Phe-Gly-OH; configuration not given here), the T/C is 93 % of control (dose: 75.0 mg/kg/injection, schedule: Q01DX001 (ip), vehicle: saline) and 91 % of control (dose: 150.0 mg/kg/injection, schedule: Q01DX001 (ip), vehicle: saline).

The values above are taken from PubChem BioAssay AID248 (DTP/NCI, 2004).
